Measurements published in patent publication US10485235B2, “Aryloxypyrimidinyl ethers as herbicides” (FMC Corporation, priority 2015, dated 2019).

Tests used:
Assay type in all cases: in vivo
[1] = test system: ryegrass, Italian (Italian ryegrass, Lolium multiflorum); assay: Test A postemergence, Italian ryegrass; details: Lolium multiflorum, post-emergence, 240 h, postemergence, 0 to 100 scale, 0 is no effect, 100 is complete control, approximately 10 days, read-out: Plant response rating, Ryegrass, Italian; for pest or weed control at 31 g/ha: 31 g ai/ha; for pest or weed control at 125 g/ha: 125 g ai/ha
Procedure, shortened: (§1)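 For postemergence, one- to two-leaf plants 2–10 cm tall were sprayed; for preemergence, seeded loam–sand soil got a directed spray. Both used compound in a non-phytotoxic, surfactant-containing solvent, with visual injury ratings (0–100) after roughly 10 greenhouse days.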

rice (Oryza sativa) = assay: Test B flooded paddy test, rice; details: Oryza sativa; 250 g ai/ha, Flood; visual rating after 13 to 15 days; scale 0 to 100, 0 is no effect, 100 is complete control; read-out: Plant response rating, Rice
Procedure, shortened: (§2)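 Plants grown to the 2-leaf stage; pots flooded to 3 cm above soil and compounds applied directly into the paddy water, depth held throughout. After 13 to 15 days in the greenhouse, injury was rated visually against untreated controls on a 0–100 scale (0 no effect, 100 complete control).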

[2] = test system: foxtail, giant (giant foxtail, Setaria faberii); assay: Test A postemergence, giant foxtail; details: Setaria faberi, post-emergence, 240 h, postemergence, 0 to 100 scale, 0 is no effect, 100 is complete control, approximately 10 days, read-out: Plant response rating, Foxtail, Giant; for pest or weed control at 31 g/ha: 31 g ai/ha; for pest or weed control at 125 g/ha: 125 g ai/ha
Procedure, shortened: as §1

[3] = test system: sedge, umbrella (small-flower umbrella sedge, Cyperus difformis); assay: Test B flooded paddy test, umbrella sedge; details: Cyperus difformis; 250 g ai/ha, Flood; visual rating after 13 to 15 days; scale 0 to 100, 0 is no effect, 100 is complete control; read-out: Plant response rating, Sedge, Umbrella
Procedure, shortened: as §2

[4] = test system: ragweed (common ragweed, Ambrosia elatior); assay: Test A postemergence, ragweed; details: Ambrosia artemisiifolia, post-emergence, 240 h, postemergence, 0 to 100 scale, 0 is no effect, 100 is complete control, approximately 10 days, read-out: Plant response rating, Ragweed; for pest or weed control at 31 g/ha: 31 g ai/ha; for pest or weed control at 125 g/ha: 125 g ai/ha
Procedure, shortened: as §1

[5] = test system: pigweed (Amaranthus retroflexus); assay: Test A preemergence, pigweed; details: Amaranthus retroflexus, pre-emergence, 240 h, Preemergence, 0 to 100 scale (0 no effect, 100 complete control), read-out: Plant response rating, Pigweed; for pest or weed control at 31 g/ha: 31 g ai/ha; for pest or weed control at 125 g/ha: 125 g ai/ha
Procedure, shortened: as §1

[6] = test system: galium (catchweed bedstraw, Galium aparine); assay: Test A postemergence, galium; details: Galium, post-emergence, 240 h, postemergence, 0 to 100 scale, 0 is no effect, 100 is complete control, approximately 10 days, read-out: Plant response rating, Galium; for pest or weed control at 31 g/ha: 31 g ai/ha; for pest or weed control at 125 g/ha: 125 g ai/ha
Procedure, shortened: as §1

[7] = test system: foxtail, giant (giant foxtail, Setaria faberii); assay: Test A preemergence, giant foxtail; details: Setaria faberi, pre-emergence, 240 h, Preemergence, 0 to 100 scale (0 no effect, 100 complete control), read-out: Plant response rating, Foxtail, Giant; for pest or weed control at 31 g/ha: 31 g ai/ha; for pest or weed control at 125 g/ha: 125 g ai/ha
Procedure, shortened: as §1

kochia (Kochia scoparia) = assay: Test A postemergence, kochia; details: Bassia scoparia, post-emergence, 240 h, postemergence, 0 to 100 scale, 0 is no effect, 100 is complete control, approximately 10 days, read-out: Plant response rating, Kochia; for pest or weed control at 31 g/ha: 31 g ai/ha; for pest or weed control at 125 g/ha: 125 g ai/ha
Procedure, shortened: as §1

[8] = test system: wheat (Triticum aestivum); assay: Test A postemergence, wheat; details: Triticum aestivum, post-emergence, 240 h, postemergence, 0 to 100 scale, 0 is no effect, 100 is complete control, approximately 10 days, read-out: Plant response rating, Wheat; for plant injury at 31 g/ha: 31 g ai/ha; for plant injury at 125 g/ha: 125 g ai/ha
Procedure, shortened: as §1

[9] = test system: pigweed (Amaranthus retroflexus); assay: Test A postemergence, pigweed; details: Amaranthus retroflexus, post-emergence, 240 h, postemergence, 0 to 100 scale, 0 is no effect, 100 is complete control, approximately 10 days, read-out: Plant response rating, Pigweed; for pest or weed control at 31 g/ha: 31 g ai/ha; for pest or weed control at 125 g/ha: 125 g ai/ha
Procedure, shortened: as §1

[10] = test system: blackgrass (Alopecurus myosuroides); assay: Test A postemergence, blackgrass; details: Alopecurus myosuroides, post-emergence, 240 h, postemergence, 0 to 100 scale, 0 is no effect, 100 is complete control, approximately 10 days, read-out: Plant response rating, Blackgrass; for pest or weed control at 31 g/ha: 31 g ai/ha; for pest or weed control at 125 g/ha: 125 g ai/ha
Procedure, shortened: as §1

[11] = test system: barnyardgrass (Echinochloa crus-galli); assay: Test B flooded paddy test, barnyardgrass; details: Echinochloa crus-galli; 250 g ai/ha, Flood; visual rating after 13 to 15 days; scale 0 to 100, 0 is no effect, 100 is complete control; read-out: Plant response rating, Barnyardgrass
Procedure, shortened: as §2

[12] = test system: ragweed (common ragweed, Ambrosia elatior); assay: Test A preemergence, ragweed; details: Ambrosia artemisiifolia, pre-emergence, 240 h, Preemergence, 0 to 100 scale (0 no effect, 100 complete control), read-out: Plant response rating, Ragweed; for pest or weed control at 31 g/ha: 31 g ai/ha; for pest or weed control at 125 g/ha: 125 g ai/ha
Procedure, shortened: as §1

Row | Compound | pest or weed control at 31 g/ha [1] [%] | pest or weed control at 125 g/ha [1] [%] | plant injury at 250 g/ha (rice (Oryza sativa)) [%] | pest or weed control at 31 g/ha [2] [%] | pest or weed control at 125 g/ha [2] [%] | pest or weed control at 250 g/ha [3] [%] | pest or weed control at 31 g/ha [4] [%] | pest or weed control at 125 g/ha [4] [%] | pest or weed control at 31 g/ha [5] [%] | pest or weed control at 125 g/ha [5] [%] | pest or weed control at 31 g/ha [6] [%] | pest or weed control at 125 g/ha [6] [%] | pest or weed control at 31 g/ha [7] [%] | pest or weed control at 125 g/ha [7] [%] | pest or weed control at 31 g/ha (kochia (Kochia scoparia)) [%] | pest or weed control at 125 g/ha (kochia (Kochia scoparia)) [%] | plant injury at 31 g/ha [8] [%] | plant injury at 125 g/ha [8] [%] | pest or weed control at 31 g/ha [9] [%] | pest or weed control at 125 g/ha [9] [%] | also measured
1 | FC(F)(F)COc1c(Cl)cccc1Oc1ncc(Cl)cn1 [Compound 42] | 0 | 0 | 0 | 0 | 10 | 60 | 0 | 0 | 0 | 60 | 0 | 20 | 0 | 10 | 0 | 10 | 0 | 0 | 20 | 60 | pest or weed control at 31 g/ha [10]: 0%; pest or weed control at 125 g/ha [10]: 10%; pest or weed control at 250 g/ha [11]: 0%; pest or weed control at 31 g/ha [12]: 0%; pest or weed control at 125 g/ha [12]: 0%
2 | Cc1cccc(Oc2ncc(Cl)cn2)c1OCC(F)(F)F [Compound 63] | 0 | 0 | 0 | 0 | 0 | 90 | 0 | 0 | 0 | 0 | 0 | 0 | 0 | 0 | 0 | 0 | 0 | 0 | 0 | 0 | pest or weed control at 31 g/ha [10]: 0%; pest or weed control at 125 g/ha [10]: 0%; pest or weed control at 250 g/ha [11]: 0%; pest or weed control at 31 g/ha [12]: 0%; pest or weed control at 125 g/ha [12]: 0%
3 | FC(F)(F)COc1c(I)cccc1Oc1ncc(Cl)cn1 [Compound 65] | 0 | 10 | 0 | 10 | 50 | 90 | 0 | 0 | 50 | 100 | 30 | 50 | 30 | 100 | 80 | 100 | 0 | 0 | 70 | 100 | pest or weed control at 31 g/ha [10]: 0%; pest or weed control at 125 g/ha [10]: 30%; pest or weed control at 250 g/ha [11]: 20%; pest or weed control at 31 g/ha [12]: 0%; pest or weed control at 125 g/ha [12]: 0%
